Minimal effective dose, ED50 and TD50 data for two molecules are collected here from patent US4820721A, “1-aryl-5-(2-oxo-1-pyrrolidinyl)-1,2,3-triazolines as novel anticonvulsants” (priority 1988, dated 1989).

Series [1] in a line: Phase I anticonvulsant activity (MES and scMet tests). It counts as in vivo. To be noted: Mus musculus, male albino mice, read-out: Activity, Phase I (active dose). The protocol: They afford protection in both the scMet and MES seizure models. The 1-p-chlorophenyl-5-(2-oxo-1-pyrrolidinyl)-1,2,3-triazoline is active in the 100 mg/kg dose and the 1-phenyl-5-(2-oxo-1-pyrrolidinyl)-1,2,3-triazoline is active in the 300 mg/kg dose.
(§1) The anticonvulsant activity was evaluated by subjecting male albino mice to the MES test and the scMet test. The maximal electroshock seizure test (MES) was performed according to the method of Swinyard et al (J. Pharmacol. Exp. Ther. 106, 319, 1952), and abolition of the hind limb tonic extensor component of the maximal seizures was defined as protection. In the subcutaneous pentylenetetrazole seizure threshold test (scMet), 85 mg/kg of pentylenetetrazol was administered as a 0.5% solution subcutaneously in the posterior midline, and failure to observe even a threshold seizure (a single episode of clonic spasms of at least 5-s duration) was defined as protection.

A short description of series [2]: subcutaneous pentylenetetrazole (Metrazole) seizure threshold (scMet) test. It counts as in vivo. To be noted: Mus musculus, sc; Phase II; male albino mice; 85 mg/kg pentylenetetrazol s.c. How it is done: as §1
A short description of series [3]: in vivo. Conditions: mouse. On the set-up: species or system mice. How it is done: Neurotoxicity was evaluated by the rotorod ataxia test (Dunham et al, J. Am. Pharm. Assoc. Sci. Ed., 46, 208, 1957). The animal was placed on a wooden rod of 2.8-cm diameter rotating at 6 rpm. Normal mice can remain on a rod rotating at this speed indefinitely.
Series [4] is described as follows: maximal electroshock seizure (MES) test. It counts as in vivo. To be noted: Mus musculus; Phase II; male albino mice. The protocol: as §1

SMILES strings stand for the structures.

Take `O=C1CCCN1C1CN=NN1c1ccccc1` (centres unmarked) [1-phenyl-5-(2-oxo-1-pyrrolidinyl)-1,2,3-triazoline]: the minimal effective dose in series [1] was 300 mg/kg.
Take `O=C1CCCN1C1CN=NN1c1ccc(Cl)cc1` (centres unmarked) [1-p-chlorophenyl-5-(2-oxo-1-pyrrolidinyl)-1,2,3-triazoline]: the median effective dose (ED50) (as a rule, the dose that gives a 50% effect, or the effect in half of the subjects) in series [2] was determined as 77.2 mg/kg; in series [4], 116 mg/kg. Also, the minimal effective dose in series [1] came out at 100 mg/kg. The molecule also yielded a TD50 in series [3] of 249 mg/kg.
